The values below come from patent US3954814A, “Alkadienylcyclopropanecarboxylates” (Sumitomo Chemical Company, Limited, priority 1971, dated 1976).

In one experiment the test system is house flies. In words: Campbell's turn table oil spray test on house fly adults (Experimental Example 1). To be noted: Musca domestica, 24 h, oil spray 5 ml, 10 min exposure, mortality after 1 day, read-out: LC50 (50 percent lethal concentration). It is filed as in vivo. How it is done:
The present compounds (1), (4), (8), (10), (14), (15), (20), (22), (32), (36), (38), (41), (44), (48), (50), (51), (52), (53), (61), (66), (68), (72), (73), (78), (80), (81), (90), (93) and (96), and chrysanthemic acid esters and pyrethric acid esters corresponding thereto were individually formulated by use of deodorized kerosene into oil sprays of various test concentrations.
Using the Campbell's turn table [disclosed in "Soap & Sanitary Chemicals," Vol. 14, No. 6, page 119 (1938)], 5 ml. of each of the oil sprays was sprayed. When 20 seconds had elapsed after the spraying, the shutter was opened, and adults of house flies (a group of about 100 flies) were exposed to the settling mist for 10 minutes and then transferred to an observation cage.
The above operation was repeated several times to measure the LC50 (50 percent lethal concentration) of each compound.

Experiment [1] concerns Northern house mosquitoes. The experiment in a line: knock-down test of oil sprays on Northern house mosquito adults in (70 cm)^3 glass chamber (Experimental Example 2). It is filed as in vivo. How it is done:
The present compounds (1), (6), (20), (22), (23), (25), (27), (29), (30), (31), (39), (42), (43), (45), (49), (53), (56), (62), (64), (78), (81), (83), (85), (87), (88) and (89), and chrysanthemic acid esters and pyrethric acid esters corresponding thereto were individually formulated by use of deodorized kerosene into oil sprays of various test concentrations.
About 20 adults of Northern house mosquitoes were liberated in a (70 cm)^3 glass chamber, and 0.7 ml. of each of the oil sprays was sprayed into the chamber under a pressure of 1.5 kg/cm^2 by use of a glass atomizer. Subsequently, the number of knocked-down mosquitoes was counted to calculate the KT50 (50 percent knock down time) of each compound.

The mark [2] stands for this setting: concentration of oil spray 0.2%.
Setting [3] is: concentration of oil spray 0.1%.

Converted amounts (≈) assume the structure as drawn.

With `C=CCc1cc(C)c(COC(=O)C2C(C=C(C)C(=O)OC)C2(C)C)c(C)c1` (stereo not shown) [2,6-Dimethyl-4-allylbenzyl pyrethrate, reference compound], the LC50 in the experiment on house flies stood at 1420 µg/mL (≈ 3830 µM).
For the compound `C=CCC1=C(C)C(OC(=O)C2C(C=C(C)C(=O)OC)C2(C)C)CC1=O` (stereo not shown) [2-Allyl-3-methyl-2-cyclopentene-1-one-4-yl pyrethrate, reference compound], in experiment [1] (setting [2]), the “KT50 (50 percent knock down time)” value was 173 s.
Consider `C#CCC1=C(C)C(OC(=O)C2C(C=C(C)C)C2(C)C)CC1=O` (stereo not shown) [2-Propargyl-3-methyl-2-cyclopentene-1-one-4-yl chrysanthemate, reference compound], for which, in experiment [1] (setting [3]), the “KT50 (50 percent knock down time)” value came to 249 s.
Take `CC(C)=CC1C(C(=O)OCN2C(=O)C3=C(CCCC3)C2=O)C1(C)C` (stereo not shown) [3,4,5,6-Tetrahydrophthalimidomethyl chrysanthemate, reference compound]: the “KT50 (50 percent knock down time)” value in experiment [1] (setting [3]) was 103 s.
The same measure, in the same setting: then `CC(C)=CC1C(C(=O)OCN2C(=O)C3=C(CC=CC3)C2=O)C1(C)C` (stereo not shown) [3,6-Dihydrophthalimidomethyl chrysanthemate, reference compound], with 107 s.
With `COC(=O)C(C)=CC1C(C(=O)OCc2cccc(Oc3ccccc3)c2)C1(C)C` (stereo not shown) [3-Phenoxybenzyl pyrethrate, reference compound], in the experiment with house flies, the LC50 amounted to 1250 µg/mL (≈ 3170 µM).
In the case of `C#CCc1ccc(C(C#C)OC(=O)C2C(C=C(C)C(=O)OC)C2(C)C)o1` (stereo not drawn) [5-Propargyl-α-ethynylfurfuryl pyrethrate, reference compound], in the experiment on house flies, the LC50 was 820 µg/mL (≈ 2310 µM).
With `C#CCc1ccc(COC(=O)C2C(C=C(C)C)C2(C)C)o1` (stereo not shown) [5-Propargylfurfuryl chrysanthemate, reference compound], in experiment [1] (setting [2]), the “KT50 (50 percent knock down time)” value worked out at 132 s.
As for `CC(C)=CC1C(C(=O)OCN2C(=O)C(C)=C(C)C2=O)C1(C)C` (stereo not shown) [Dimethylmaleimidomethyl chrysanthemate, reference compound], the “KT50 (50 percent knock down time)” value in experiment [1] (setting [3]) turned out to be 101 s.
Take `CC(C)=CC1C(C(=O)OCN2C(=O)c3ccccc3C2=S)C1(C)C` (stereo not shown) [Monothiophthalimidomethyl chrysanthemate, reference compound]: the “KT50 (50 percent knock down time)” value in experiment [1] (setting [2]) was 207 s.
In the case of `C#CCc1ccc(COC(=O)C2C(C=C(C)C=C)C2(C)C)o1` (stereo not shown) [Present compound (6), 5-Propargylfurfuryl 2',2'-dimethyl-3'-(2"-methyl-1",3"-butadienyl)-cyclopropanecarboxylate], the “KT50 (50 percent knock down time)” value in experiment [1] (setting [2]) was determined as 105 s.
For the compound `C=CCC1=C(C)C(OC(=O)C2C(C=C(C)C=C)C2(C)C)CC1=O` (stereo not shown) [Present compound (23), 2-Allyl-3-methyl-2-cyclopentene-1-one-4-yl 2',2'-dimethyl-3'-(2"-methyl-1",3"-butadienyl)-cyclopropanecarboxylate], the “KT50 (50 percent knock down time)” value in experiment [1] (setting [2]) turned out to be 152 s.
`C#CCC1=C(C)C(OC(=O)C2C(C=C(C)C=C)C2(C)C)CC1=O` (stereo not shown) [Present compound (25), 2-propargyl-3-methyl-2-cyclopentene-1-one-4-yl 2',2'-dimethyl-3'-(2"-methyl-1",3"-butadienyl)-cyclopropanecarboxylate]: the “KT50 (50 percent knock down time)” value in experiment [1] (setting [3]) was 190 s.
In the case of `C=CC(C)=CC1C(C(=O)OCN2C(=O)C3=C(CCCC3)C2=O)C1(C)C` (stereo not shown) [Present compound (27), 3,4,5,6-Tetrahydrophthalimidomethyl 2',2'-dimethyl-3'-(2"-methyl-1",3"-butadienyl)-cyclopropanecarboxylate], the “KT50 (50 percent knock down time)” value in experiment [1] (setting [3]) is 83 s.
As for `C=CC(C)=CC1C(C(=O)OCN2C(=O)c3ccccc3C2=S)C1(C)C` (stereo not shown) [Present compound (29), Monothiophthalimidomethyl 2,2-dimethyl-3-(2'-methyl-1',3'-butadienyl)-cyclopropanecarboxylate], in experiment [1] (setting [2]), the “KT50 (50 percent knock down time)” value stood at 182 s.
As to `C=CC=CC1C(C(=O)OC(C#N)c2cccc(Oc3cccc(C)c3)c2)C1(C)C` (stereo not drawn) [Present compound (96), 3-(m-Tolyloxy)-α-cyanobenzyl 2',2'-dimethyl-3'-(1",3"-butadienyl)-cyclopropanecarboxylate], the LC50 in the experiment on house flies was 60 µg/mL (≈ 155 µM).
